Measured values taken from patent US9963467B2, “Boronic acid derivatives and therapeutic uses thereof” (Rempex Pharmaceuticals, Inc., priority 2014, dated 2018).
Where two headings read alike, the source gives them in different places.

Tests used:
KPC-2 = KPC-2 (Klebsiella pneumoniae, UniProt Q9F663); assay: Ki, nitrocefin cleavage by purified enzyme, KPC-2; assay type: biochemical; settings: nitrocefin reporter substrate; read-out: Ki (KPC-2, NCF)
Procedure, shortened: (§1)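 Readout: nitrocefin hydrolysis, A490 recorded every 10 sec over 10 min. Enzyme and inhibitor (varied concentrations) preincubated 10 min, RT, in reaction buffer before substrate addition.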

EC1010 (CMY-6) [1] = assay: Tigemonam potentiation (MPC@4), EC1010; assay type: cell-based; settings: BLI with tigemonam at 4 μg/mL
ec302 (TEM-10) [2] = assay: Aztreonam potentiation (MPC@4), ec302; assay type: cell-based; settings: BLI with aztreonam at 4 μg/mL
KP1009 (CTX-M-15) = assay: Tigemonam potentiation (MPC@4), KP1009; assay type: cell-based; settings: BLI with tigemonam at 4 μg/mL
ECL1002 [3] = assay: Tigemonam potentiation (MPC@4), ECL1002; assay type: cell-based; settings: BLI with tigemonam at 4 μg/mL
KP1005 (CTX-M-14) = assay: Tigemonam potentiation (MPC@4), KP1005; assay type: cell-based; settings: BLI with tigemonam at 4 μg/mL
KP1086 (OXA-48) = assay: Biapenem potentiation (MPC@1), KP1086; settings: BLI with biapenem at 1 μg/mL
ec302 (TEM-10) [4] = assay: Tigemonam potentiation (MPC@4), ec302; assay type: cell-based
[5] = Intravenous pharmacokinetics; assay type: in vivo; settings: rat, plasma; rats, 20 mg/kg, intravenous infusion over 0.5 hours; read-out: Free Cl (converted)
Description: Rats (n=3 per compound) were administered by a single infusion. Intravenous doses were infused over 0.5 hours via an indwelling femoral vein cannula. […] (˜0.3 mL) samples were collected from each rat at designated time points up to 24 hours. Blood samples were centrifuged within 5 min of collection at 12000 g for 5 min to obtain plasma. The plasma samples were stored at −80° C. until analyzed. Data were analyzed using WinNonlin. The doses of all compounds tested were 20 mg/kg.

KP1004 (KPC-2) [6] = assay: Biapenem potentiation (MPC@1), KP1004; settings: BLI with biapenem at 1 μg/mL
[7] = Monomer content of pH adjusted aqueous solutions (LC-UV); assay type: physicochemical; settings: pH adjusted to 7.6 to 8, LC-UV; for % Monomer in 1 mg/mL salt solution: 1 mg/mL aqueous salt solution; for % Monomer in 10 mg/mL salt solution: 10 mg/mL aqueous salt solution; for % Monomer in 100 mg/mL salt solution: 100 mg/mL aqueous salt solution
Procedure, shortened: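 Aqueous solutions at 1.00, 10.0 or 100 mg/mL (active fraction) brought to pH 7.6–8 with acid or base, compound fully dissolved. Injected within half an hour of preparation onto C18 reversed-phase LC (0.1% TFA water / 0.085% TFA methanol gradient); UV detection at 220, 254 and 300 nm.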

SHV-12 = SHV-12 (Klebsiella pneumoniae, UniProt P0AD64, E235K/G234S/L31Q); assay: Ki, nitrocefin cleavage by purified enzyme, SHV-12; assay type: biochemical; settings: nitrocefin reporter substrate; read-out: Ki (SHV-12, NCF)
Sequence of SHV-12 (P0AD64 22-286 L31Q/G234S/E235K): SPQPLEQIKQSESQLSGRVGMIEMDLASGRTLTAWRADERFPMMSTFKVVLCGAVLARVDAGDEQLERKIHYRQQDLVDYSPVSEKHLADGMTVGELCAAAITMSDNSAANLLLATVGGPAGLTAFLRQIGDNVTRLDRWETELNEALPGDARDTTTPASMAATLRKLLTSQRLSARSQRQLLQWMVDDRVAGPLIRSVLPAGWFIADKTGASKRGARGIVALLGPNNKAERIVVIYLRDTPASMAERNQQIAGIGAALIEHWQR
Procedure, shortened: as §1

P99 = P99 (Enterobacter cloacae, UniProt P05364); assay: Ki, nitrocefin cleavage by purified enzyme, P99; assay type: biochemical; settings: nitrocefin reporter substrate; read-out: Ki (P99, NCF)
Sequence of P99 (P05364 21-381): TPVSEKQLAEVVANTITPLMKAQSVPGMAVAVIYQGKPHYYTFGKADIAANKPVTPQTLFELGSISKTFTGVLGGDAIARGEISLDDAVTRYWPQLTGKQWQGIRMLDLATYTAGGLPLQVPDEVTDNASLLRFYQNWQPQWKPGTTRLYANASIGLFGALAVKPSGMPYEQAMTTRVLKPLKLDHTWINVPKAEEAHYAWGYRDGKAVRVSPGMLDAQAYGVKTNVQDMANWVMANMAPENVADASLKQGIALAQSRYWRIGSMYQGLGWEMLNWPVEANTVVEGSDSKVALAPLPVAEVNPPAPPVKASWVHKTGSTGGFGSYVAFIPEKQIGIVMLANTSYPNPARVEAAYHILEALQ
Procedure, shortened: as §1

ec308 (SHV-5) = assay: Tigemonam potentiation (MPC@4), ec308; assay type: cell-based
ECL1002 [8] = assay: Aztreonam potentiation (MPC@4), ECL1002; assay type: cell-based; settings: BLI with aztreonam at 4 μg/mL
OXA-48 = OXA-48 (Klebsiella pneumoniae, UniProt Q6XEC0); assay: Ki, nitrocefin cleavage by purified enzyme, OXA-48; assay type: biochemical; settings: nitrocefin reporter substrate; read-out: Ki (OXA-48, NCF)
Sequence of OXA-48 (Q6XEC0 23-265, looked up, species assumed): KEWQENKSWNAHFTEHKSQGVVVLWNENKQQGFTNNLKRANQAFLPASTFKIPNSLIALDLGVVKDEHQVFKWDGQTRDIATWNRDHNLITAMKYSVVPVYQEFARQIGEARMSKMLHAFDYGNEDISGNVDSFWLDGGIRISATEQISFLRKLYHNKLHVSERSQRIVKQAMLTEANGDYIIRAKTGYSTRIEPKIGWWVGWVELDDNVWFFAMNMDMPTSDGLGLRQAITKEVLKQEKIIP
Procedure, shortened: as §1

KP1010 (SHV-12) = assay: Tigemonam potentiation (MPC@4), KP1010; assay type: cell-based
CTX-M-14 = CTX-M-14 (Escherichia coli, UniProt Q9L5C7); assay: Ki, nitrocefin cleavage by purified enzyme, CTX-M-14; assay type: biochemical; settings: nitrocefin reporter substrate; read-out: Ki (CTX-M-14, NCF)
Sequence of CTX-M-14 (Q9L5C7 29-291): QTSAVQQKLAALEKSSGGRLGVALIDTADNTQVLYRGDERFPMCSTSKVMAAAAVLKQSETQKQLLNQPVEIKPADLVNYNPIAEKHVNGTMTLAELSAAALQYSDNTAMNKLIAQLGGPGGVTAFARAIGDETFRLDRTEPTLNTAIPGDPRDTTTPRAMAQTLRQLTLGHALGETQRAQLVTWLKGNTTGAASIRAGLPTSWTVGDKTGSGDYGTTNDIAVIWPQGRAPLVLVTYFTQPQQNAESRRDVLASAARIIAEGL
Procedure, shortened: as §1

EC1010 (CMY-6) [9] = assay: organism not typed; assay type: cell-based
Pa AmpC = Pa AmpC (Pseudomonas aeruginosa, UniProt P24735); assay: Ki, nitrocefin cleavage by purified enzyme, Pa AmpC; assay type: biochemical; settings: nitrocefin reporter substrate; read-out: Ki (Pa AmpC, NCF)
Sequence of Pa AmpC (P24735 27-397): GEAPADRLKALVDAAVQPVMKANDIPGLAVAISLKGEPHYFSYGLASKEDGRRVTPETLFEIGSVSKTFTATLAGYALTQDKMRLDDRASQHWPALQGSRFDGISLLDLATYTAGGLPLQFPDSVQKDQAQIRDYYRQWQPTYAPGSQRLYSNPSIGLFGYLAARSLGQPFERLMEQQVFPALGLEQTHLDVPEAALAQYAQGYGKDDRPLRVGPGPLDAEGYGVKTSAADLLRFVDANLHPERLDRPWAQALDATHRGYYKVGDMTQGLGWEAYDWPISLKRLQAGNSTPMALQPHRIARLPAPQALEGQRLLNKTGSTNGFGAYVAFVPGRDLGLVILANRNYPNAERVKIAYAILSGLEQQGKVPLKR
Procedure, shortened: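 Inhibitor potency was expressed as Ki, measured spectrophotometrically against purified enzyme using nitrocefin cleavage read at 490 nm after a 10 min room-temperature preincubation with inhibitor.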

KP1004 (KPC-2) [10] = assay: Aztreonam potentiation (MPC@4), KP1004; assay type: cell-based; settings: BLI with aztreonam at 4 μg/mL

Sequence of KPC-2 (Q9F663 25-293, looked up, species assumed): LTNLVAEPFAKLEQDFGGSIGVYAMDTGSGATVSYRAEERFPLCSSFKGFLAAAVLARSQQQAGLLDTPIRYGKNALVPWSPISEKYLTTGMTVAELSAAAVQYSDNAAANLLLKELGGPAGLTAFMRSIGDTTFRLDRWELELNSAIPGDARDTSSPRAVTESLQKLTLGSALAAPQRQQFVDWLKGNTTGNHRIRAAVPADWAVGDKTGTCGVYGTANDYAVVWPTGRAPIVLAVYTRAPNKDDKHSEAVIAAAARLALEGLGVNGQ

Structure (SMILES) | Ki (KPC-2) [nM] | TIG MPC4 CMY-6 EC1010 (EC1010 (CMY-6) [1]) | AZT MPC4 TEM-10 ec302 (ec302 (TEM-10) [2]) | TIG MPC4 CTX-M-15 KP1009 (KP1009 (CTX-M-15)) | TIG MPC4 ECL1002 (ECL1002 [3]) | TIG MPC4 CTX-M-14 KP1005 (KP1005 (CTX-M-14)) | BPM MPC1 OXA-48 KP1086 (KP1086 (OXA-48)) | clearance [5] [mL/min/kg] | BPM MPC1 KP1004 KPC-2 (KP1004 (KPC-2) [6]) | % Monomer in 1 mg/mL salt solution [7] [%] | % Monomer in 10 mg/mL salt solution [7] [%] | % Monomer in 100 mg/mL salt solution [7] [%] | Ki (SHV-12) [nM] | Ki (P99) [nM] | AZT MPC4 ECL1002 (ECL1002 [8]) | Ki (OXA-48) [nM] | Ki (CTX-M-14) [nM] | Ki (Pa AmpC) [nM] | TIG MPC4 TEM-10 ec302 (ec302 (TEM-10) [4]) | TIG MPC4 SHV-5 ec308 (ec308 (SHV-5)) | also measured
CSCC(=O)N[C@H]1Cc2ccc(F)c(C(=O)O)c2OB1O [Compound 1, (R)-7-fluoro-2-hydroxy-3-(2-(methylthio)acetamido)-3,4-dihydro-2H-benzo[e][1,2]oxaborinine-8-carboxylic acid] | > 10 | X (MIC of less than 1 μg/mL) | Y (MIC of 1 μg/mL to 10 μg/mL) | X (MIC of less than 1 μg/mL) | X (MIC of less than 1 μg/mL) | X (MIC of less than 1 μg/mL) | Y (MIC of 1 μg/mL to 10 μg/mL) | 14.2 | X (MIC of less than 1 μg/mL) | 98.0 | 97.5 | 96.4 | < 1 | > 10 | Y (MIC of 1 μg/mL to 10 μg/mL) | > 10 | < 1 | – | – | – | TIG MPC4 TEM-10 ec302 (ec302 (TEM-10) [4]; BLI with tigemonam at 4 μg/mL): Y (MIC of 1 μg/mL to 10 μg/mL); TIG MPC4 SHV-5 ec308 (ec308 (SHV-5); BLI with tigemonam at 4 μg/mL): X (MIC of less than 1 μg/mL); TIG MPC4 SHV-12 KP1010 (KP1010 (SHV-12); BLI with tigemonam at 4 μg/mL): X (MIC of less than 1 μg/mL)
O=C(CSC1CNC1)N[C@H]1Cc2ccc(F)c(C(=O)O)c2OB1O [Compound 2, (R)-3-(2-(azetidin-3-ylthio)acetamido)-7-fluoro-2-hydroxy-3,4-dihydro-2H-benzo[e][1,2]oxaborinine-8-carboxylic acid] | > 10 | X (MIC of less than 1 μg/mL) | Y (MIC of 1 μg/mL to 10 μg/mL) | X (MIC of less than 1 μg/mL) | X (MIC of less than 1 μg/mL) | X (MIC of less than 1 μg/mL) | Y (MIC of 1 μg/mL to 10 μg/mL) | 10.2 | X (MIC of less than 1 μg/mL) | – | – | – | < 1 | > 10 | Y (MIC of 1 μg/mL to 10 μg/mL) | > 10 | < 1 | > 10 | Y (key: X: MIC of less than 1 ng/mL; Y: MIC of 1 μg/mL to 10 μg/mL; Z: MIC of greater than 10 μg/mL) | X (key: X: MIC of less than 1 μg/mL; Y: MIC of 1 μg/mL to 10 μg/mL; Z: MIC of greater than 10 μg/mL) | AZT MPC4 CMY-6 EC1010 (EC1010 (CMY-6) [9]): Y (key: X: MIC of less than 1 ng/mL; Y: MIC of 1 μg/mL to 10 μg/mL; Z: MIC of greater than 10 μg/mL); TIG MPC4 SHV-12 KP1010 (KP1010 (SHV-12)): X (key: X: MIC of less than 1 μg/mL; Y: MIC of 1 μg/mL to 10 μg/mL; Z: MIC of greater than 10 μg/mL)
COc1ccc2c(c1C(=O)O)OB(O)[C@@H](NC(=O)Cc1cccs1)C2 [Compound 29, (R)-2-hydroxy-7-methoxy-3-(2-(thiophen-2-yl)acetamido)-3,4-dihydro-2H-benzo[e][1,2]oxaborinine-8-carboxylic acid] | 1 to 10 | X (MIC of less than 1 μg/mL) | X (MIC of less than 1 ng/mL) | X (MIC of less than 1 μg/mL) | X (MIC of less than 1 μg/mL) | X (MIC of less than 1 μg/mL) | Y (MIC of 1 μg/mL to 10 μg/mL) | 11.2 | X (MIC of less than 1 μg/mL) | 99.4 | 98.6 | 67.0 | < 1 | 1 to 10 | – | < 1 | < 1 | 1 to 10 | Y (key: X: MIC of less than 1 ng/mL; Y: MIC of 1 μg/mL to 10 μg/mL; Z: MIC of greater than 10 μg/mL) | X (key: X: MIC of less than 1 μg/mL; Y: MIC of 1 μg/mL to 10 μg/mL; Z: MIC of greater than 10 μg/mL) | TIG MPC4 SHV-12 KP1010 (KP1010 (SHV-12)): X (key: X: MIC of less than 1 μg/mL; Y: MIC of 1 μg/mL to 10 μg/mL; Z: MIC of greater than 10 μg/mL); AZT MPC4 KPC-2 KP1004 (KP1004 (KPC-2) [10]): Y (MIC of 1 μg/mL to 10 μg/mL)
O=C(Cc1cccs1)N[C@H]1Cc2ccc(F)c(C(=O)O)c2OB1O [Compound 30, (R)-7-fluoro-2-hydroxy-3-(2-(thiophen-2-yl)acetamido)-3,4-dihydro-2H-benzo[e][1,2]oxaborinine-8-carboxylic acid] | 1 to 10 | X (MIC of less than 1 μg/mL) | Y (MIC of 1 μg/mL to 10 μg/mL) | X (MIC of less than 1 μg/mL) | X (MIC of less than 1 μg/mL) | Y (MIC of 1 μg/mL to 10 μg/mL) | Y (MIC of 1 μg/mL to 10 μg/mL) | 23 | X (MIC of less than 1 μg/mL) | 94.6 | 93.5 | 87.6 | < 1 | 1 to 10 | Y (MIC of 1 μg/mL to 10 μg/mL) | < 1 | < 1 | 1 to 10 | Y (key: X: MIC of less than 1 ng/mL; Y: MIC of 1 μg/mL to 10 μg/mL; Z: MIC of greater than 10 μg/mL) | X (key: X: MIC of less than 1 μg/mL; Y: MIC of 1 μg/mL to 10 μg/mL; Z: MIC of greater than 10 μg/mL) | AZT MPC4 CMY-6 EC1010 (EC1010 (CMY-6) [9]): Y (key: X: MIC of less than 1 ng/mL; Y: MIC of 1 μg/mL to 10 μg/mL; Z: MIC of greater than 10 μg/mL); TIG MPC4 SHV-12 KP1010 (KP1010 (SHV-12)): X (key: X: MIC of less than 1 μg/mL; Y: MIC of 1 μg/mL to 10 μg/mL; Z: MIC of greater than 10 μg/mL)
